Measured values taken from patent US20090324489A1 (priority 2005, published 2009).
Like-named read-outs stand apart in the source and are kept apart here.

Columns and labels:
[1] = Formation of wortmannin from WmC20 conjugates monitored by HPLC; details: PBS pH 6.8, 37° C.
Description: The solutions were incubated in water bath at 37° C. and were analyzed at different time points with HPLC by injecting the solution (10 μL) together with 1 μL internal standard solution (containing 1 μg methyl 4-hydroxybezoate). The initial time point (0 hr) was taken before putting the tube in the water bath. HPLC gradients were adjusted to produce baseline separations. Before the injection, the samples were vortexed briefly and then spun down. Data using this method appear in FIG. 6.
Compounds (1.8 mg) and 4b (1.3 mg) (examples were weighted into the 1.5 mL tubes and dissolved in PBS buffer (pH 6.8, 400 μL). The solutions were incubated at 37° C. At different time point 20 μL solution was mixed with 1 μL internal standard solution in DMSO (containing 1 μg methyl 4-hydroxybenzoate) and analyzed by HPLC. The initial time point (0 hr) was taken before putting the tube in the water bath. Before the injection, the samples were vortexed briefly and then spun down.
The following HPLC methods were employed. HPLC (Varian Prostar 210 with a variable wavelength PDA 330 detector) employed reverse phase C18 columns (VYDAC, Cat.#: 218TP 1022 for synthesis; Varian, Cat. #: R0086200C5 for analysis) with water (Millipore, containing 0.1% trifloroacetic acid,) (buffer A) and acetonitrile (containing 20% buffer A) (buffer B) as elution buffer. System 1: buffer A/buffer B (80:20) isocratic for 5 minutes, linear gradient to buffer A/buffer B (20:80) over 40 minutes, then the gradient back to 80:20 in 5 minutes and isocratic for 5 minutes, flow: 4.9 ml/min, λmax: 418 nm (used for purification of 2a); System 2: buffer A/buffer B (80:20) isocratic for 5 minutes, linear gradient to buffer A (buffer B (20:80) over 25 minutes and then isocratic for 5 minutes, then the gradient back to 80:20 in 5 minutes and isocratic for 5 minutes, flow: 6.0 mi/min, λmax: 408 nm (used for purification of 2b); System 3: buffer A/buffer B (70:30) linear gradient to buffer A/buffer B (20:80) over 15 minutes, then gradient back to 70:30 in 3 minutes and isocratic for another 5 minutes, flow: 1.0 ml/min, λmax: 258 nm (System 4: buffer A/buffer B (99:1) linear gradient to buffer A/buffer B (40:60) over 46 minutes, then gradient back to […] in 5 minutes and isocratic for another 5 minutes, flow: 1.0 ml/min, λmax: 250 nm).

A549 cells = test: Anti-proliferative SRB assay, A549 cells; type: cell-based
Description: A549 cells were grown in RPMI-1640 supplemented with 10% FBS, 100 units/mL of penicillin, 100 μg/mL of streptomycin, and 2 mM L-glutamine. All cells were grown in a humidified atmosphere at 37° C. and 5% CO2. Growth inhibition was evaluated by the SRB assay^22. Cells were seeded in 96-well plates at 5000 cells per well in 100 μL of media and incubated at 37° C. for 24 hours. Cells were then treated with 0-100 μM of compounds at 37° C. for 48 hours. Cells were fixed with 50 μL cold 50% TCA, incubated at 4° C. for 1 hour, and washed 5 times with tap water. The 96-well plates were allowed to air dry and 100 μL 0.4% sulforhodamine B (SRB) in 1% acetic acid was added to each well. After 10 minutes, the unbound SRB was washed away with 1% acetic acid and the plates were dried. Protein-bound dye was solubilized by addition of 200 μL 10 mM Tris buffer and subsequent shaking at RT for 10 minutes. The absorbance of each well was measured at 490 nm by a plate reader. Percent cell survival was calculated for each concentration by the ratio of the measured absorbance to the absorbance of the untreated cells. Curve fitting was performed using Prism 4.0a software. IC50 is the 50% inhibition of cell mass without subtraction of the resistant cell population.

physchem = type: physicochemical; details: for half-life / half-life at 1.5 μM: buffer
Description: The stability of compounds of the invention was obtained by the following method. […] The solutions were incubated at 37° C.
Stability data was fit to equation 1, which illustrates our treatment of the data for 2a ([…]) as shown in FIG. 2 with first order decay constants (kFOD) given in Table 1.

[2] = cited from earlier work
HeLa cells = test: Anti-proliferative assay, HeLa cells; type: cell-based
PI3K = test: Inhibition of PI3K enzyme activity (32P ATP lipid phosphorylation, TLC); type: biochemical; details: compounds incubated 3 hours at 37° C. in PBS pH 6.8, then 30 minute PI3K incubation; read-out: Bioassay: PI3K IC50
Description: We incubated compounds for three hours at 37° C. in PBS, pH 6.8, followed a 30 minute incubation for PI3K activity using the assay system previously described which involves lipid phosphorylation by ^32P labeled ATP and thin layer chromatography, (see Yuan et al., Bioconjug. Chem. 16:669 (2005)).

[3] = Homo sapiens, A549, 48 hours treatment
[4] = RPM tissue culture medium, data from Holleran et al.

| Molecule | K1 (wortmannin generation, fit to Equation 2) [1] | K2 (wortmannin degradation, fit to Equation 2) [1] | IC50 (A549 cells; [3]) | half-life (physchem; pH 6.8, Half Life) | IC50 (HeLa cells; Homo sapiens, HeLa) | IC50 (PI3K) | also measured |
| --- | --- | --- | --- | --- | --- | --- | --- |
| WmC2O-N(Me)-hexanoate-Bead [Example 16] | 0.308 (0.124-0.492) hr^−1 | 0.148 (0.076-0.220) hr^−1 | – | – | – | – | – |
| COC[C@H]1OC(=O)c2coc3c2[C@@]1(C)C1=C(C3=O)[C@@H]2CCC(=O)[C@@]2(C)C[C@H]1OC(C)=O [wortmannin] | – | – | 21.1 ± 0.5 µM | 57.8 h | 41 ± 0.9 µM | – | KFOD (95% confidence intervals) (physchem; PBS pH 6.8, 37° C.): 0.012 (0.0080-0.016) hr^−1; KFOD (95% confidence intervals) (physchem; PBS, 0.065 mM BSA, 37° C.): 0.18 (0.16-0.20) hr^−1; KFOD (95% confidence intervals) (physchem; PBS, 10 mM NAcLys, 37° C.): 0.30 (0.23-0.38) hr^−1; KFOD (95% confidence intervals) (physchem; PBS, 10 mM Proline, 37° C.): 1.87 (0.62-3.13) hr^−1; half-life at 2.26 mM (physchem; pH 6.8, Half Life): 3.85 h; KFOD ([2]; MEM tissue culture medium, data from Holleran et al.): 5.04 h⁻¹; half-lives in RPM and MEM tissue culture media ([2]; RPM and MEM, Holleran et al.): about 10 minutes; Half Life [2, 4]: 0.172 h; KFOD [2, 4]: 4.02 h⁻¹; half-life in tissue culture media ([2]; tissue culture media, Holleran et al.): 8 to 13 min |
| WmC20-N(Me)-hexanoate-dextran [Example 17] | – | – | – | – | – | – | IC50 (A549 cells; 48 hours treatment): 3.96 ± 0.23 µM; IC50 (HeLa cells): 13.3 ± 0.4 µM |
| WmC20-N(H)-hexanoate-dextran [Example 18] | – | – | – | – | – | – | IC50 (A549 cells; 48 hours treatment): 64.7 ± 1.2 µM; IC50 (HeLa cells): 58 ± 0.6 µM |
| COCC1OC(=O)C(=CN(C)CCCCCC(=O)O)C2=C(O)C(=O)C3=C(C(OC(C)=O)CC4(C)C(=O)CCC34)C21C (centres unmarked) [Example 1, wortmannin C20-N(Me)-hexanoic acid] | – | – | 3.11 ± 0.17 µM | 8.7 h | 10.9 ± 0.2 µM | – | half-life at 1.5 μM (physchem; pH 6.8, Half Life): 10.7 h |
| WmC20-NH-hexanoate-IgG [Example 15] | – | – | – | – | – | > 1 µM | – |
| COCC1OC(=O)C(=CNCCCCCC(=O)O)C2=C(O)C(=O)C3=C(C(OC(C)=O)CC4(C)C(=O)CCC34)C21C (centres unmarked) [Example 2, wortmannin C20-NH-hexanoic acid] | – | – | 45.8 ± 0.3 µM | 131 h | 63.8 ± 0.6 µM | – | half-life at 1.5 μM (physchem; pH 6.8, Half Life): 223 h |
| WmC20-N(Me)-hexanoate-IgG [Example 14] | 0.024 (0.013-0.034) hr^−1 | 0.282 (0.166-0.398) hr^−1 | – | – | – | 0.13 µM | – |
| Wm-N(Me)Hexanoate-BSA conjugate [Example 12] | 0.190 (0.128-0.253) hr^−1 | 0.905 (0.707-1.103) hr^−1 | – | – | – | 0.0148 ± 0.0011 µM | – |
| WmC20-NH-hexanoate-BSA conjugate [Example 13] | – | – | – | – | – | > 1 µM | – |
